Data as given in patent publication US20250223628A1, “METHODS OF IMPROVING SURVIVAL AND ELIMINATING TREATMENT-LIMITING TOXICITIES OF DICHLOROACETATE IN PATIENTS WITH PYRUVATE DEHYDROGENASE COMPLEX DEFICIENCY” (SAOL INTERNATIONAL DEVELOPMENT LTD., priority 2024, published 2025).
Like-named read-outs stand apart in the source and are kept apart here.

Tests used:
patients with PDCD [1] = experiment: Prospective, randomized, double-blind, placebo-controlled crossover study with GSTZ1 haplotype-based DCA dosing and open-label extension; type: in vivo, human
Procedure: A prospective, randomized, double-blind, placebo-controlled crossover study was conducted in patients with PDCD. This study was the first study to prospectively use GSTZ1 haplotype testing to identify a dose that may help to mitigate the risk of peripheral neuropathy from chronic administration of DCA. These patients were treated with either DCA or placebo for 4 months, provided placebo for a 1-month washout period and then were placed on the placebo or DCA, whichever they had not taken prior. Patients then had the option to continue on open-label DCA until the ultimate completion of the study or regulatory approval. 34 PDCD patients were recruited into the study. 7 (21%) of these patients were prospectively identified as “slow metabolizers”. Rather than having a dose of 25 mg/kg/day, these patients were provided DCA doses at 12.5 mg/kg/day. Both dosing groups took DCA in two equal, weight-based doses. This was the first prospective study completed using the haplotype testing and conducted solely in the PDCD patient population.
The study had anticipated a 20% dropout rate due to death or peripheral neuropathy.

patients with PDCD [2] = experiment: Survival analysis of DCA treatment cohort versus DeBrosse natural history cohort; type: in vivo, human; details: for Adjusted Odds Ratio (95% CI): DCA vs natural history
Procedure: As a result, an analysis procedure was identified that used the data available in the DeBrosse natural history study to assess whether or not DCA extended life. The analysis was conducted to answer the following questions: • a. Did the year of birth have any effect on survival? For example, has standard of care improved. • b. Is the primary driver of survival differences from natural history driven by the ketogenic diet, the current standard of care, although empirical approach to managing PDCD patients? • c. Once the population is controlled for an index age, gender and age of disease onset, does DCA provide a survival benefit? • d. Once the population is controlled for an index age and age of disease onset, does DCA provide a survival benefit? • e. Once the population has the maximum duration of follow-up, including with patients that discontinued treatment, does DCA provide a survival benefit?
After accounting for two patients with multiple exclusion criteria, 34 patients (14 males and 20 females) from the DeBrosse study remain for potential matching for the current analyses.
Baseline characteristics related to drug and non-drug treatment, age at the earliest recorded of first related symptom, initiation of the ketogenic diet or diagnosis and other baseline demographics were compared for each analysis. It was notable that the Phase III cohort had more females. This was controlled by conducting a 1:1 matched cohort in the primary analysis that requires gender matching.
A summary of all analyses conducted with both Kaplan-Meier log-rank statistics and hazard/odds ratio reductions are provided below: […]

[3] = cited from earlier work
[4] = tested on: patients with congenital lactic acidosis (CLA); details: 25 mg/kg broken into two daily doses, cited from earlier work
[5] = Abdelmak 2013, Congenital Lactic Acidosis, 8 total patients
[6] = Dunbar 2014, Recurrent Malignant Brain Tumor, 8 total patients
[7] = Kaufmann 2006, MELAS, 15 total patients
[8] = Michelakis 2017, Pulmonary Arterial Hypertension, 20 total patients
[9] = Stacpoole 2008, Congenital Lactic Acidosis, 36 total patients

In the case of `O=C(O)C(Cl)Cl` [DCA, Dichloroacetate], the “Completion of the double-blind portion” value (patients with PDCD [1]; 34 PDCD patients, 25 or 12.5 mg/kg/day by haplotype) is reported as “all of the patients completed”, the “Dropouts for other reasons” value (patients with PDCD [1]; double-blind portion) is reported as “zero” and the “Events of peripheral neuropathy” value (patients with PDCD [1]; double-blind study) is reported as “zero”. The “Events of neuropathy possibly related to therapy” value (patients with PDCD [1]; open-label phase, occurred after 18 months of exposure) was “one”, the “Adjusted Odds Ratio (95% CI)” value (patients with PDCD [2]; Full Cohort Comparison, multivariate P 0.0065) was 0.014 and the “Adjusted Odds Ratio (95% CI)” value (patients with PDCD [2]; Matched on Age and Sex, Excluding 1980s Patients with Extended Follow-Up, multivariate P 0.0055) was 0.023. The “Adjusted Odds Ratio (95% CI)” value (patients with PDCD [2]; Matched on Age and Sex, Excluding 1980s Patients, multivariate P 0.0033) was 0.0072, the “Adjusted Odds Ratio (95% CI)” value (patients with PDCD [2]; Matched on Age, multivariate P 0.0012) was 0.0071 and the “Adjusted Odds Ratio (95% CI)” value (patients with PDCD [2]; Matched on Sex and Follow-Up Duration, multivariate P 0.024) was 0.026. The “Adjusted Odds Ratio (95% CI)” value (patients with PDCD [2]; Primary Analysis with Extended Follow-Up, multivariate P 0.0029) was 0.013, the “Adjusted Odds Ratio (95% CI)” value (patients with PDCD [2]; Primary Analysis: Matched on Age and Sex, multivariate P 0.0061) was 0.011 and the “DCA Treatment Cohort Mortality Rate (95% CI)” value (patients with PDCD [2]; Full Cohort Comparison, N 33, log rank P 0.003) was 0.00. For the same compound, the “DCA Treatment Cohort Mortality Rate (95% CI)” value (patients with PDCD [2]; Matched on Age and Sex with Replacement with Extended Follow-Up, N 31, log rank P 0.0443) was 1.38, the “DCA Treatment Cohort Mortality Rate (95% CI)” value (patients with PDCD [2]; Matched on Age and Sex with Replacement, N 31, log rank P 0.0295) was 0.00 and the “DCA Treatment Cohort Mortality Rate (95% CI)” value (patients with PDCD [2]; Matched on Age and Sex with Unknown Onset Imputed at 0, N 28, log rank P 0.0273) was 0.00. The “DCA Treatment Cohort Mortality Rate (95% CI)” value (patients with PDCD [2]; Matched on Age and Sex with Unknown Onset Imputed at 0 with Extended Follow-Up, N 28, log rank P 0.0357) was 1.55, the “DCA Treatment Cohort Mortality Rate (95% CI)” value (patients with PDCD [2]; Matched on Age and Sex, Excluding 1980s Patients with Extended Follow-Up, N 25, log rank P 0.0899) was 1.74 and the “DCA Treatment Cohort Mortality Rate (95% CI)” value (patients with PDCD [2]; Matched on Age and Sex, Excluding 1980s Patients, N 25, log rank P 0.0255) was 0.00. For the same compound, the “DCA Treatment Cohort Mortality Rate (95% CI)” value (patients with PDCD [2]; Matched on Age, N 32, log rank P 0.0019) was 0.00, the “DCA Treatment Cohort Mortality Rate (95% CI)” value (patients with PDCD [2]; Matched on Sex and Follow-Up Duration, N 28, log rank P 0.0211) was 0.00 and the “DCA Treatment Cohort Mortality Rate (95% CI)” value (patients with PDCD [2]; Primary Analysis with Extended Follow-Up, N 28, log rank P 0.0357) was 1.55. For the same compound, the “DCA Treatment Cohort Mortality Rate (95% CI)” value (patients with PDCD [2]; Primary Analysis: Matched on Age and Sex, N 28, log rank P 0.0273) was 0, the “Peripheral Neuropathy Adverse Event Rate” value [3, 5] was 38% and the “Peripheral Neuropathy Adverse Events” value [3, 5] was 3. For the same compound, the “Peripheral Neuropathy Adverse Event Rate” value [3, 6] was 25%, the “Peripheral Neuropathy Adverse Events” value [3, 6] was 2 and the “Peripheral Neuropathy Adverse Event Rate” value [3, 7] was 100%. The “Peripheral Neuropathy Adverse Events” value [3, 7] was 15, the “Peripheral Neuropathy Adverse Event Rate” value [3, 8] was 25% and the “Peripheral Neuropathy Adverse Events” value [3, 8] was 5. The “Peripheral Neuropathy Adverse Event Rate” value [3, 9] was 36%, the “Peripheral Neuropathy Adverse Events” value [3, 9] was 13 and the “Peripheral Neuropathy Adverse Events” value ([3]; Total of five studies, 87 total patients) was 38. The “Peripheral Neuropathy Adverse Event Rate” value ([3]; Total of several studies across multiple disease states, 87 total patients) was 44%, the “Dose required for a similar pharmacokinetic exposure” value ([3]; slow metabolizer group of GSTZ1 haplotypes, fraction of the dose) was “roughly ½” and the “Recovery from peripheral neuropathy exhibited during DCA administration” value ([3]; time to recovery) was at most 9 months. For the same compound, the “Patients who experienced peripheral neuropathy” value ([4]; double blind portion) was 36% and the “Patients who experienced peripheral neuropathy” value ([4]; long-term extension arm) was 38%.
